Common to all, as to assay type: in vivo, chicken
Experiment [1] in a line: Intraamniotic administration: Fe and Zn concentration in blood serum and liver. Particulars: relative to unchelated Fe (Fe) and non-injected groups. From the text:
(§1) To generate extracts for administration, wheat flours (CE-OsNAS2, hereinafter “biofortified”; and NS, hereinafter “control”) were mixed in dH2O (50 g/L), filtered (600 μm) and centrifuged, and the resulting supernatant was dialyzed (MWCO 12-14 kDa, Medicell International Ltd., London, UK) exhaustively against dH2O (48 hrs). The dialysate was lyophilized, and the resulting powder dissolved in 18MΩ H2O (0.05 g/mL) forming the white wheat flour extracts for intra-amniotic administration. Iron solutions were prepared by combining an Fe standard (1000 μg/mL, 2% HCl, High-Purity Standards, Charleston, S.C., USA) with either 18MΩ H2O (Fe), or 1.6 mM NA (Toronto Research Chemicals Inc., Toronto, Canada) dissolved in 18MΩ H2O (Fe-NA). The Fe-EDTA solution was achieved by combining ferric nitrate (Fe(NO3)3 9H2O, Sigma, St. Louis, Mo., USA) with hydroxyethyl ethylenediamine triacetic acid (H3HEDTA, Sigma, St. Louis, Mo., USA) dissolved in sodium hydroxide (NaOH, Sigma, St. Louis, Mo., USA) to represent an anionic chelate of dissolved NaFeEDTA with final Fe concentration of 77 μM.
Cornish-cross fertile broiler eggs (n=70) were obtained from a commercial hatchery (Moyer's chicks, Quakertown, Pa., USA) and incubated until hatching. All methods were performed in accordance with the relevant guidelines and regulations. […]

The subject of the next experiment is intestinal villi. The experiment is described as follows: Intraamniotic administration: intestinal functionality (goblet cell number, villi length and width).
Description: as §1
For intraamniotic administration, eggs (n=40) containing viable embryos were weighed and randomly assigned to seven groups (n≥5) based on weight distribution. At day 17 of incubation, extracts/Fe solutions (1 mL) were injected into the amniotic fluid via a 21-gauge needle for the seven treatment groups as follows: (1) non-injected (NI); (2) 18MΩ H2O (H2O); (3) Fe solution (Fe); (4) Fe-EDTA solution (Fe-EDTA); (5) Fe-NA solution (Fe-NA); (6) Control white flour extract (C WF); (7) Biofortified white flour extract (B WF) and eggs were subsequently incubated for four days until hatch. Chicks were euthanized by CO2 exposure after hatching and all tissues were collected.
Intestinal functionality and short-chain fatty acid (SCFA) analysis. […] Samples were quantified via GC-MS using a TRACE™ 1310 gas chromatograph (Thermo Fisher Scientific, Waltham, Mass., USA) and a TraceGOLD™ TG-WaxMS A column (Thermo Fisher Scientific, Waltham, Mass., USA).

For experiment [2], the system named is Lactobacillus, Bifidobacterium, Escherichia, and Clostridium. The experiment is described as follows: Intraamniotic administration: cecal microbial population analysis. From the text:
To generate extracts for administration, wheat flours (CE-OsNAS2, hereinafter “biofortified”; and NS, hereinafter “control”) were mixed in dH2O (50 g/L), filtered (600 μm) and centrifuged, and the resulting supernatant was dialyzed (MWCO 12-14 kDa, Medicell International Ltd., London, UK) exhaustively against dH2O (48 hrs). The dialysate was lyophilized, and the resulting powder dissolved in 18MΩ H2O (0.05 g/mL) forming the white wheat flour extracts for intra-amniotic administration. Iron solutions were prepared by combining an Fe standard (1000 μg/mL, 2% HCl, High-Purity Standards, Charleston, S.C., USA) with either 18MΩ H2O (Fe), or 1.6 mM NA (Toronto Research Chemicals Inc., Toronto, Canada) dissolved in 18MΩ H2O (Fe-NA). […]
Microbial population analysis. Lactobacillus, Bifidobacterium, Escherichia, and Clostridium density in intraamniotic administration treatment groups was determined as follows: in brief, cecal contents were homogenized with phosphate-buffered saline (PBS, 9 ml), centrifuged and the pellet resuspended in ethylenediaminetetraacetic acid (EDTA, 50 mM) and treated (37° C., 45 min) with lysozyme (10 mg/mL, Sigma Aldrich CO., St. Louis, Mo., USA). […]

Setting [3] is: relative to other treatment groups.

Consider Fe-EDTA, for which the “Blood serum Fe concentration” value in experiment [1] was “significantly elevated”. Besides, in the experiment with intestinal villi (relative to all treatment groups), the Intestinal villi width result is “increased significantly”. For the same substance, in the experiment on intestinal villi (setting [3]), the “Goblet cell number in intestinal villi” value is given as “decreased significantly” and the Intestinal villi length entry is “increased significantly”. For the same substance, the “abundance of Clostridium in cecum” value in experiment [2] (relative to C-WF) is “significantly increased”. The “abundance of Escherichia in cecum” value in experiment [2] (relative to Fe-NA) is “significantly increased”.

The record behind these values is patent publication US11629354B2, “Grain with increased nicotianamine” (The United States of America, as represented by the …, priority 2020, dated 2023).
